# Measured values as given in patent publication US8476197B2, “Aminopropenoates as fungicides” (priority 2009, dated 2013).
# Marks after values point to notes of the source that are not given here.
# Conditions: pH 2.3
row,SMILES,Log P
1,CCOC(=O)C(C#N)=C(Nc1ccccc1SC)c1cccnc1OC [Compound 522],3.32^[c]; 3.32^[b]

# Same assay, conditions: pH 2.7
row,SMILES,Log P
1,CCOC(=O)C(C#N)=C(Nc1ccccc1Sc1ccc(C)cc1)c1cc(C)oc1C [Compound 419],5.08^[a]
2,C=CCSc1ccccc1NC(=C(C#N)C(=O)OCC)c1cc(C)oc1C [Compound 420],4.25^[a]
3,CCOC(=O)C(C#N)=C(Nc1ccccc1SC(C)C)c1cc(C)oc1C [Compound 421],4.57^[a]
4,CCOC(=O)C(C#N)=C(Nc1ccccc1Br)c1cc(C)oc1C [Compound 422],3.99^[a]
5,COC(=O)C(C#N)=C(NC(C)Cc1ccccc1C)c1cccnc1Cl (stereo not drawn) [Compound 423],3.23^[a]
6,COC(=O)C(C#N)=C(NC(C)CCc1ccccc1)c1cccnc1Cl (stereo not drawn) [Compound 424],3.27^[a]
7,COC(=O)C(C#N)=C(NC(C)CCc1cccc(C)c1)c1cccnc1Cl (stereo not drawn) [Compound 425],3.68^[a]
8,COC(=O)C(C#N)=C(NC(C)Cc1ccccc1)c1cccnc1Cl (stereo not drawn) [Compound 426],2.98^[a]
9,COC(=O)C(C#N)=C(NC(C)c1ccc(Cl)cc1)c1sc(C)nc1C(F)(F)F (stereo not drawn) [Compound 427],3.98^[a]
10,COC(=O)C(C#N)=C(Nc1ccccc1SC)c1sc(C)nc1C(F)(F)F [Compound 428],3.46^[a]
11,CCOC(=O)C(C#N)=C(NC(C)c1ccc(Cl)cc1)c1cn(C)nc1C(F)(F)F (stereo not drawn) [Compound 430],3.95^[a]
12,CCOC(=O)C(C#N)=C(Nc1ccccc1SC)c1cn(C)nc1C(F)(F)F [Compound 431],3.48^[a]
13,CCOC(=O)C(C#N)=C(Nc1ccccc1SC)c1sc(C)nc1C(F)(F)F [Compound 432],3.8^[a]
14,CCOC(=O)C(C#N)=C(NC(C)c1ccc(Cl)cc1)c1sc(C)nc1C(F)(F)F (stereo not drawn) [Compound 433],4.27^[a]
15,CCOC(=O)C(C#N)=C(NC(C)c1ccc(Cl)cc1)c1sccc1Cl (stereo not drawn) [Compound 434],4.4^[a]
16,CCOC(=O)C(C#N)=C(Nc1ccccc1SC)c1sccc1Cl [Compound 435],3.92^[a]
17,CCOC(=O)C(C#N)=C(Nc1ccccc1SC)c1ccsc1I [Compound 436],3.94^[a]
18,CCOC(=O)C(C#N)=C(NC(C)CCc1ccccc1)c1sccc1C(F)(F)F (stereo not drawn) [Compound 437],4.56^[a]
19,CCOC(=O)C(C#N)=C(Nc1ccc(Cl)cc1)c1sccc1Br [Compound 457],4.11^[a]
20,CCOC(=O)C(C#N)=C(NCc1ccccc1SC)c1sccc1Br [Compound 458],4.01^[a]
21,CCOC(=O)C(C#N)=C(Nc1cccc(Cl)c1)c1sccc1Br [Compound 459],4.09^[a]

row,SMILES,Log P
1,CCOC(=O)C(C#N)=C(Nc1ccccc1OC(C)C)c1sccc1C(F)(F)F [Compound 460],4.54^[a]
2,CCOC(=O)C(C#N)=C(Nc1ccc(OC(F)F)cc1)c1sccc1C(F)(F)F [Compound 461],3.78^[a]
3,CCOC(=O)C(C#N)=C(Nc1ccc(SC)cc1)c1sccc1C(F)(F)F [Compound 462],4.09^[a]
4,CCOC(=O)C(C#N)=C(NCc1ccccc1SC)c1sccc1C(F)(F)F [Compound 463],4.09^[a]
5,CCOC(=O)C(C#N)=C(NCc1ccccc1SC)c1sc(C)nc1C(F)(F)F [Compound 464],3.87^[a]
6,COC(=O)C(C#N)=C(Nc1ccc2ncsc2c1)c1sc(C)nc1C(F)(F)F [Compound 465],2.64^[a]
7,COC(=O)C(C#N)=C(NCc1ccccc1SC)c1sc(C)nc1C(F)(F)F [Compound 466],3.55^[a]
8,CCOC(=O)C(C#N)=C(Nc1ccccc1OC(C)C)c1sccc1Br [Compound 467],4.46^[a]
9,CCOC(=O)C(C#N)=C(Nc1ccc(OC(F)F)cc1)c1sccc1Br [Compound 468],3.73^[a]
10,CCOC(=O)C(C#N)=C(Nc1ccc2ncsc2c1)c1sccc1Br [Compound 469],3.09^[a]
11,CCOC(=O)C(C#N)=C(Nc1ccc(SC)cc1)c1sccc1Br [Compound 470],4.01^[a]
12,CCOC(=O)C(C#N)=C(Nc1ccccc1OC(C)C)c1cn(C)nc1C(F)F [Compound 471],3.53^[a]
13,CCOC(=O)C(C#N)=C(Nc1ccc(OC(F)F)cc1)c1cn(C)nc1C(F)F [Compound 472],3.04^[a]
14,CCOC(=O)C(C#N)=C(Nc1ccc2ncsc2c1)c1cn(C)nc1C(F)F [Compound 473],2.44^[a]
15,CCOC(=O)C(C#N)=C(Nc1ccc(SC)cc1)c1cn(C)nc1C(F)F [Compound 474],3.19^[a]
16,CCOC(=O)C(C#N)=C(Nc1ccc(Cl)cc1)c1cn(C)nc1C(F)F [Compound 475],3.23^[a]
17,CCOC(=O)C(C#N)=C(NCc1ccccc1SC)c1cn(C)nc1C(F)F [Compound 476],3.17^[a]
18,CCOC(=O)C(C#N)=C(Nc1cccc(Cl)c1)c1cn(C)nc1C(F)F [Compound 477],3.21^[a]
19,CCOC(=O)C(C#N)=C(Nc1ccc2ncsc2c1)c1sc(C)nc1C(F)(F)F [Compound 479],2.98^[a]
20,CCOC(=O)C(C#N)=C(Nc1ccc(SC)cc1)c1sc(C)nc1C(F)(F)F [Compound 480],3.87^[a]
21,CCOC(=O)C(C#N)=C(Nc1ccc(C(C)C)cc1)c1sccc1C(F)(F)F [Compound 481],4.75^[a]

row,SMILES,Log P
1,CCOC(=O)C(C#N)=C(Nc1cccc(SC)c1)c1sccc1C(F)(F)F [Compound 482],4.04^[a]
2,CCOC(=O)C(C#N)=C(Nc1ccc(OC)cc1)c1sccc1C(F)(F)F [Compound 483],3.62^[a]
3,CCOC(=O)C(C#N)=C(Nc1ccc(N(C)C)cc1)c1sccc1C(F)(F)F [Compound 484],3.89^[a]
4,COC(=O)C(C#N)=C(Nc1ccc(OC)cc1)c1sc(C)nc1C(F)(F)F [Compound 485],3.06^[a]
5,COC(=O)C(C#N)=C(Nc1ccc(N(C)C)cc1)c1sc(C)nc1C(F)(F)F [Compound 486],3.31^[a]
6,COC(=O)C(C#N)=C(Nc1ccc(C(C)C)cc1)c1sc(C)nc1C(F)(F)F [Compound 487],4.14^[a]
7,CCOC(=O)C(C#N)=C(Nc1ccc(OC)cc1)c1sccc1Br [Compound 488],3.55^[a]
8,CCOC(=O)C(C#N)=C(Nc1ccc(N(C)C)cc1)c1sccc1Br [Compound 489],3.76^[a]
9,CCOC(=O)C(C#N)=C(Nc1ccc(C(C)C)cc1)c1sccc1Br [Compound 490],4.73^[a]
10,CCOC(=O)C(C#N)=C(Nc1cccc(SC)c1)c1sccc1Br [Compound 491],3.96^[a]
11,CCOC(=O)C(C#N)=C(Nc1ccc(OC)cc1)c1sc(C)nc1C(F)(F)F [Compound 492],3.44^[a]
12,CCOC(=O)C(C#N)=C(Nc1ccc(N(C)C)cc1)c1sc(C)nc1C(F)(F)F [Compound 493],3.71^[a]
13,CCOC(=O)C(C#N)=C(Nc1ccc(C(C)C)cc1)c1sc(C)nc1C(F)(F)F [Compound 494],4.54^[a]
14,CCOC(=O)C(C#N)=C(Nc1ccc(OC)cc1)c1cn(C)nc1C(F)F [Compound 495],2.77^[a]
15,CCOC(=O)C(C#N)=C(Nc1ccc(N(C)C)cc1)c1cn(C)nc1C(F)F [Compound 496],2.71^[a]
16,CCOC(=O)C(C#N)=C(Nc1ccc(C(C)C)cc1)c1cn(C)nc1C(F)F [Compound 497],3.76^[a]
17,CCOC(=O)C(C#N)=C(Nc1cccc(SC)c1)c1cn(C)nc1C(F)F [Compound 498],3.17^[a]
18,CCOC(=O)C(C#N)=C(Nc1ccccc1SC)c1cc(Cl)sc1Cl [Compound 500],4.59^[a]
19,CCOC(=O)C(C#N)=C(NC1(c2c(F)cccc2F)CC1)c1cc(Cl)sc1Cl [Compound 501],4.62^[a]
20,CCOC(=O)C(C#N)=C(Nc1ccccc1SC)c1nc(Cl)ccc1Cl [Compound 502],3.99^[a]
21,CCOC(=O)C(C#N)=C(Nc1ccccc1SC)c1ncc(Cl)cc1Cl [Compound 503],4.09^[a]

row,SMILES,Log P
1,COC(=O)C(C#N)=C(Nc1cccc(SC)c1)c1sc(C)nc1C(F)(F)F [Compound 504],3.53^[a]
2,CCOC(=O)C(C#N)=C(Nc1cccc(SC)c1)c1sc(C)nc1C(F)(F)F [Compound 505],3.89^[a]
3,CCOC(=O)C(C#N)=C(Nc1ccccc1SC)c1cn(C)nc1OC [Compound 507],3.06^[a]
4,CCOC(=O)C(C#N)=C(NC1(c2c(F)cccc2F)CC1)c1cn(C)nc1OC [Compound 508],3.02^[a]
5,CCOC(=O)C(C#N)=C(Nc1ccc2ncsc2c1)c1sccc1C(F)(F)F [Compound 509],3.21^[a]
6,CCOC(=O)C(C#N)=C(Nc1ccc(Cl)cc1)c1sccc1C(F)(F)F [Compound 510],4.14^[a]
7,CCOC(=O)C(C#N)=C(Nc1cccc(Cl)c1)c1sccc1C(F)(F)F [Compound 511],4.14
8,CCOC(=O)C(C#N)=C(Nc1ccc(Cl)cc1)c1sc(C)nc1C(F)(F)F [Compound 512],3.92^[a]
9,CCOC(=O)C(C#N)=C(Nc1cccc(Cl)c1)c1sc(C)nc1C(F)(F)F [Compound 513],3.89^[a]
10,COC(=O)C(C#N)=C(Nc1ccccc1OC(C)C)c1sc(C)nc1C(F)(F)F [Compound 514],3.96^[a]
11,COC(=O)C(C#N)=C(Nc1ccc(OC(F)F)cc1)c1sc(C)nc1C(F)(F)F [Compound 515],3.31^[a]
12,COC(=O)C(C#N)=C(Nc1ccc(SC)cc1)c1sc(C)nc1C(F)(F)F [Compound 516],3.53^[a]
13,COC(=O)C(C#N)=C(Nc1ccc(Cl)cc1)c1sc(C)nc1C(F)(F)F [Compound 517],3.55^[a]
14,COC(=O)C(C#N)=C(Nc1cccc(Cl)c1)c1sc(C)nc1C(F)(F)F [Compound 518],3.53^[a]
15,CCOC(=O)C(C#N)=C(Nc1ccccc1OC(C)C)c1sc(C)nc1C(F)(F)F [Compound 519],4.36^[a]
16,CCOC(=O)C(C#N)=C(Nc1ccccc1OC(C)C)c1ccsc1Br [Compound 523],4.46^[a]
17,CCOC(=O)C(C#N)=C(Nc1ccc(SC)cc1)c1ccsc1Br [Compound 524],4.01^[a]
18,CCOC(=O)C(C#N)=C(Nc1ccc(OC)cc1)c1ccsc1Br [Compound 525],3.6^[a]
19,CCOC(=O)C(C#N)=C(Nc1ccccc1SC)c1sc(Cl)nc1Cl [Compound 527],4.14^[a]

# Same assay, conditions: pH 7.5
row,SMILES,Log P
1,CCOC(=O)C(C#N)=C(Nc1ccccc1SC)c1cccnc1OC [Compound 522],3.32^[c]; 3.32^[b]
